Assay results taken from US20250268960A1, “COMPOSITION FOR PREVENTION AND TREATMENT OF OBESITY OR INSULIN RESISTANCE SYNDROME COMPRISING LACTOBACILLUS PLANTARUM HAC03 AND RUTIN” (HANDONG GLOBAL UNIVERSITY INDUSTRY-ACADEMIC COOPERATION …, priority 2023, published 2025).

Test system: PR/SET domain 16 (PRDM16)
Test: qPCR expression of thermogenesis gene PRDM16 in brown adipose tissue
Assay type: in vivo, C57BL6 mice
Conditions: mRNA, brown adipose tissue (BAT), high-fat diet mice; compared to HFD group
Experimental: Five-week-old male C57BL6 mice were purchased and acclimated for one week. Then, the mice in each group (n=10) were fed a low-fat diet or high-fat diet. After first allowing them to consume a low-fat diet or high-fat diet for a week, the mice in each group were orally administered with Lactobacillus plantarum HAC03, quercetin, or rutin once a day for 14 weeks.
Then, the expression levels of lipogenesis-related genes were measured at the mRNA level through qPCR.
Specifically, the colons of mice in each experimental group were homogenized, dissolved in Trizol® (RNA extraction buffer, Thermo Fisher), and RNA was extracted according to the protocol provided by the manufacturer. The extracted RNA was quantified, and an equal amount of RNA was synthesized into cDNA by reverse transcription using the SuperiorScript III cDNA synthesis Kit (Enzynomics, Daejeon, South Korea). Thereafter, real-time PCR was performed using each gene-specific primer in Table 3, TOPreal qPCR 2X premix (SYBR Green with high ROX) (Enzynomics, Daejeon, South Korea), and cDNA. Real-time PCR was performed using the ABI 7500 Fast Real time PCR system (Applied Biosystems, Waltham, MA, USA). The relative gene expression levels were calculated using the ÄÄCt method.

O=c1c(O)c(-c2ccc(O)c(O)c2)oc2cc(O)cc(O)c12 [Q, Quercetin]
expression level of PRDM16: increased
